# Laboratory results reported in publication PMC2362731, “Phase I study of Carzelesin (U-80,244) given (4-weekly) by intravenous bolus schedule” (British Journal of Cancer, 1999).
# System: patients with advanced solid tumours
# Assay: Phase I toxicity of Carzelesin, 4-weekly 10 min IV infusion (NCI-CTC grading)
# Type: in vivo, human
# Conditions: for No. of courses with delayed recovery (no. of pts): delayed more than 3 days
# Protocol: Carzelesin is a cyclopropylpyrroloindole analogue which acts as a DNA-sequence-specific alkylating agent. In this phase I study, Carzelesin was given as a 4-weekly 10 min IV infusion to 51 patients with advanced solid tumours. Patients received a median of two courses (range 1–5) at one of nine dose levels: 24, 48, 96, 130, 150, 170, 210, 250 and 300 μg m^−2. According to NCI-CTC criteria, non-haematological toxicities (grade 1/2) included fever, nausea and vomiting, mucositis and anorexia, none of which was clearly dose related. The dose-limiting toxicity was haematological and consisted mainly of neutropenia and to a lesser extent thrombocytopenia. From the dose level 150 μg m^−2, the haematological toxicity (particularly thrombocytopenia) was delayed in onset, prolonged and cumulative in some patients. In several courses, double WBC nadirs occurred. The maximum tolerated dose for a single course was 300 μg m^−2. From the dose level 170 μg m^−2, the intended dose intensity could not be delivered to most patients receiving > 2 courses owing to cumulative haematological toxicity. The dose level with the best dose intensity for multiple courses was 150 μg m^−2. The pharmacokinetics of Carzelesin and its metabolites (U-76,073; U-76,074) have been established in 31 patients during the first course of treatment using a HPLC method. […] The concentration of U-76,074 (active metabolite) extended above the lower limit of quantitation (1 ng ml^−1) for short periods of time and only at the higher dose levels. There was no relationship between neutropenia and the AUC of the prodrug Carzelesin, but the presence of detectable plasma levels of the active metabolite U-76,074 was usually associated with a substantial decrease in ANC values. © 1999 Cancer Research Campaign
# Carzelesin (U-80,244, Figure 1A) is a cyclopropylpyrroloindole (CPI) prodrug analogue of CC-1065. […] CPI drugs are a class of compounds with unique DNA interactive properties. These agents fit into the minor groove region of DNA, and the CPI function in the molecule mediates a covalent binding to the N3 position of adenine in A-T rich regions, thus forming DNA adducts in a sequence selective fashion (Hurley et al, 1984; Reynolds et al, 1985). Three new CPIs have now been developed. […] Bizelesin differs from the classical CPI drugs in that it contains two chloromethyl functions, which are both converted (via intramolecular rearrangements) to the CPI alkyl- ating species that interact with DNA. Consequently, this agent is capable of forming DNA interstrand cross-links (Lee et al, 1991). […] Therefore, efforts were directed to modu- late the alkylation rate by the preparation of CPI prodrugs that would require chemical or enzymatic conversion. The activation of Carzelesin is a two-step reaction with hydrolysis of the phenyl- urethane substituent to form the intermediate compound U-76,073, followed by ring closure to form the active product U-76,074 (Figure 1B). […] This higher efficacy may be related to the pharmacologic features of the compound. […] Phase I study of Carzelesin (U-80,244) given (4-weekly) by intravenous bolus schedule A Awada1, CJA Punt2, MJ Piccart1, O Van Tellingen3, L Van Manen2, J Kerger1, Y Groot4, J Wanders4, J Verweij5 and DJTh Wagener2 1Institut Jules Bordet, Bd de Waterloo 125, 1000 Brussels, Belgium; 2University Hospital, Geert Grooteplein 8, Box 9101, 6500 HB Nijmegen, The Netherlands; 3The Netherlands Cancer Institute (Antoni van Leeuwenhoek Huis), Plesmanlaan 121, 1066 CX Amsterdam, The Netherlands; 4European Organization for Research and Treatment of Cancer - New Drug Development Office, PO Box 7057, Amsterdam, The Netherlands; 5Rotterdam Cancer Institute, Groene Hilledijk 301, 3075 EA Rotterdam, The Netherlands; on behalf of the EORTC Early Clinical Studies Group and EORTC NDDO Summary Carzelesin is a cyclopropylpyrroloindole analogue which acts as a DNA-sequence-specific alkylating agent. […]
smiles,measurement,setting,value
CCN(CC)c1ccc2cc(C(=O)Nc3ccc4[nH]c(C(=O)N5C[C@@H](CCl)c6c5cc(OC(=O)Nc5ccccc5)c5[nH]cc(C)c65)cc4c3)oc2c1 [Carzelesin],dose level with the best dose intensity for multiple courses,4-weekly 10 min IV infusion,150 μg m^−2
same,maximum tolerated dose for a single course,4-weekly 10 min IV infusion,300 μg m^−2
same,No. of reduced courses due to haematological toxicity,"Table 2, dose level 24 μg m-2",0
same,No. of courses with delayed recovery (no. of pts),"Table 2, dose level 24 μg m-2",0
same,No. of reduced courses due to haematological toxicity,"Table 2, dose level 48 μg m-2",0
same,No. of courses with delayed recovery (no. of pts),"Table 2, dose level 48 μg m-2",0
same,No. of reduced courses due to haematological toxicity,"Table 2, dose level 96 μg m-2",0
same,No. of courses with delayed recovery (no. of pts),"Table 2, dose level 96 μg m-2",0
same,No. of reduced courses due to haematological toxicity,"Table 2, dose level 130 μg m-2",0
same,No. of courses with delayed recovery (no. of pts),"Table 2, dose level 130 μg m-2",0
same,No. of courses with delayed recovery (no. of pts),"Table 2, dose level 150 μg m-2",3 (1)
same,No. of reduced courses due to haematological toxicity,"Table 2, dose level 150 μg m-2, reduced to 130, 1 patient",3
same,No. of reduced courses due to haematological toxicity,"Table 2, dose level 170 μg m-2",0
same,No. of courses with delayed recovery (no. of pts),"Table 2, dose level 170 μg m-2",4 (4)
same,No. of courses with delayed recovery (no. of pts),"Table 2, dose level 210 μg m-2",5 (5)
same,No. of reduced courses due to haematological toxicity,"Table 2, dose level 210 μg m-2, reduced to 96, 105, 150, 4 patients",6
same,No. of courses with delayed recovery (no. of pts),"Table 2, dose level 250 μg m-2",3 (3)
same,No. of reduced courses due to haematological toxicity,"Table 2, dose level 250 μg m-2, reduced to 130, 170, 3 patients",6
same,No. of courses with delayed recovery (no. of pts),"Table 2, dose level 300 μg m-2",2 (2)
same,No. of reduced courses due to haematological toxicity,"Table 2, dose level 300 μg m-2, reduced to 150, 2 patients",2
same,"Neutropenia grade 3/4, No. of courses","Table 3, dose level 24 μg m-2",0
same,"Neutropenia grade 3/4, No. of patients (worst grade per patient)","Table 3, dose level 24 μg m-2",0
same,"Neutropenia grade 3/4, patients following the first course","Table 3, dose level 24 μg m-2",0
same,No. of toxic patients following the first course,"Table 3, dose level 24 μg m-2",0
same,"Thrombocytopenia grade 3/4, No. of courses","Table 3, dose level 24 μg m-2",0
same,"Thrombocytopenia grade 3/4, No. of patients (worst grade per patient)","Table 3, dose level 24 μg m-2",0
same,"Thrombocytopenia grade 3/4, patients following the first course","Table 3, dose level 24 μg m-2",0
same,No. of toxic patients/courses (grade 3/4 neutropenia and/or thrombocytopenia),"Table 3, dose level 24 μg m-2, 4/6 evaluable patients/courses",0
same,"Neutropenia grade 3/4, No. of courses","Table 3, dose level 48 μg m-2",0
same,"Neutropenia grade 3/4, No. of patients (worst grade per patient)","Table 3, dose level 48 μg m-2",0
same,"Neutropenia grade 3/4, patients following the first course","Table 3, dose level 48 μg m-2",0
same,No. of toxic patients following the first course,"Table 3, dose level 48 μg m-2",0
same,"Thrombocytopenia grade 3/4, No. of courses","Table 3, dose level 48 μg m-2",0
same,"Thrombocytopenia grade 3/4, No. of patients (worst grade per patient)","Table 3, dose level 48 μg m-2",0
same,"Thrombocytopenia grade 3/4, patients following the first course","Table 3, dose level 48 μg m-2",0
same,No. of toxic patients/courses (grade 3/4 neutropenia and/or thrombocytopenia),"Table 3, dose level 48 μg m-2, 3/7 evaluable patients/courses",0
same,"Neutropenia grade 3/4, No. of courses","Table 3, dose level 96 μg m-2",0/1
same,"Neutropenia grade 3/4, No. of patients (worst grade per patient)","Table 3, dose level 96 μg m-2",0/1
same,"Neutropenia grade 3/4, patients following the first course","Table 3, dose level 96 μg m-2",0/1
same,No. of toxic patients following the first course,"Table 3, dose level 96 μg m-2",2
same,"Thrombocytopenia grade 3/4, No. of courses","Table 3, dose level 96 μg m-2",1/0
same,"Thrombocytopenia grade 3/4, No. of patients (worst grade per patient)","Table 3, dose level 96 μg m-2",1/0
same,"Thrombocytopenia grade 3/4, patients following the first course","Table 3, dose level 96 μg m-2",1/0
same,No. of toxic patients/courses (grade 3/4 neutropenia and/or thrombocytopenia),"Table 3, dose level 96 μg m-2, 5/8 evaluable patients/courses",2/2
same,"Neutropenia grade 3/4, No. of courses","Table 3, dose level 130 μg m-2",2/0
same,"Neutropenia grade 3/4, No. of patients (worst grade per patient)","Table 3, dose level 130 μg m-2",2/0
same,"Neutropenia grade 3/4, patients following the first course","Table 3, dose level 130 μg m-2",0
same,No. of toxic patients following the first course,"Table 3, dose level 130 μg m-2",0
same,"Thrombocytopenia grade 3/4, No. of courses","Table 3, dose level 130 μg m-2",2/1
same,"Thrombocytopenia grade 3/4, No. of patients (worst grade per patient)","Table 3, dose level 130 μg m-2",2/1
same,"Thrombocytopenia grade 3/4, patients following the first course","Table 3, dose level 130 μg m-2",0
same,No. of toxic patients/courses (grade 3/4 neutropenia and/or thrombocytopenia),"Table 3, dose level 130 μg m-2, 5/9 evaluable patients/courses",3/3
same,"Neutropenia grade 3/4, No. of courses","Table 3, dose level 150 μg m-2",2/2
same,"Neutropenia grade 3/4, No. of patients (worst grade per patient)","Table 3, dose level 150 μg m-2",1/2
same,"Neutropenia grade 3/4, patients following the first course","Table 3, dose level 150 μg m-2",0/1
same,No. of toxic patients following the first course,"Table 3, dose level 150 μg m-2",2
same,"Thrombocytopenia grade 3/4, No. of courses","Table 3, dose level 150 μg m-2",1/1
same,"Thrombocytopenia grade 3/4, No. of patients (worst grade per patient)","Table 3, dose level 150 μg m-2",1/1
same,"Thrombocytopenia grade 3/4, patients following the first course","Table 3, dose level 150 μg m-2",1/1
same,No. of toxic patients/courses (grade 3/4 neutropenia and/or thrombocytopenia),"Table 3, dose level 150 μg m-2, 6/14 evaluable patients/courses",4/5
same,"Neutropenia grade 3/4, No. of courses","Table 3, dose level 170 μg m-2",1/3
same,"Neutropenia grade 3/4, No. of patients (worst grade per patient)","Table 3, dose level 170 μg m-2",1/3
same,"Neutropenia grade 3/4, patients following the first course","Table 3, dose level 170 μg m-2",0/2
same,No. of toxic patients following the first course,"Table 3, dose level 170 μg m-2",4
same,"Thrombocytopenia grade 3/4, No. of courses","Table 3, dose level 170 μg m-2",5/2
same,"Thrombocytopenia grade 3/4, No. of patients (worst grade per patient)","Table 3, dose level 170 μg m-2",3/2
same,"Thrombocytopenia grade 3/4, patients following the first course","Table 3, dose level 170 μg m-2",3/0
same,No. of toxic patients/courses (grade 3/4 neutropenia and/or thrombocytopenia),"Table 3, dose level 170 μg m-2, 9/16 evaluable patients/courses",6/8
same,"Neutropenia grade 3/4, No. of courses","Table 3, dose level 210 μg m-2",3/3
same,"Neutropenia grade 3/4, No. of patients (worst grade per patient)","Table 3, dose level 210 μg m-2",2/3
same,"Neutropenia grade 3/4, patients following the first course","Table 3, dose level 210 μg m-2",3/1
same,No. of toxic patients following the first course,"Table 3, dose level 210 μg m-2",4
same,"Thrombocytopenia grade 3/4, No. of courses","Table 3, dose level 210 μg m-2",0/2
same,No. of toxic patients/courses (grade 3/4 neutropenia and/or thrombocytopenia),"Table 3, dose level 210 μg m-2, 7/10 evaluable patients/courses",5/6
same,"Thrombocytopenia grade 3/4, No. of patients (worst grade per patient)","Table 3, dose level 210 μg m-2, one patient had pre-existing grade 1 thrombocytopenia",0/2
